Laboratory results published in patent US20220193095A9, “PHARMACEUTICAL COMPOSITIONS” (Shenzhen Pharmacin Co., Ltd., priority 2019, published 2022).

Key:
[1] = cited from earlier work
[2] = cited from earlier work; remark: listed apart in the source
[3] = Solubility of abiraterone acetate in fatty acids; conditions: 25° C.
[4] = Solubility of abiraterone acetate in surfactants
[5] = Solubility of abiraterone acetate in co-solvents
[6] = Solubility of abiraterone acetate in other media
[7] = Solubility of abiraterone acetate in aqueous media
[8] = Solubility of abiraterone acetate in lipids (glycerides); conditions: 25° C.

Structure (SMILES): CC(=O)O[C@H]1CC[C@@]2(C)C(=CC[C@@H]3[C@@H]2CC[C@]2(C)C(c4cccnc4)=CC[C@@H]32)C1 [Abiraterone acetate]
- Log P [1]: 5.12
- solubility in water [2]: practically insoluble in water
- Solubility ([3]; Acetic acid): 2386.1 mg/mL
- Solubility ([3]; Butyric acid): 1399.3 mg/mL
- Solubility ([3]; Heptanoic acid): 1325.9 mg/mL
- Solubility ([3]; Linoleic acid): 182.9 mg/mL
- Solubility ([3]; Nonanoic acid): 1084.1 mg/mL
- Solubility ([3]; Oleic acid): 239.0 mg/mL
- Solubility ([3]; Propionic acid): 2209.5 mg/mL
- Solubility ([3]; Valeric acid): 1104.8 mg/mL
- Solubility ([3]; n-caproic acid): 1572.6 mg/mL
- Solubility ([3]; n-caprylic acid): 1214.7 mg/mL
- Solubility ([4]; Labrasol, 25° C.): 35.4 mg/mL
- Solubility ([4]; Polyethylene Glycol Oleate, 25° C.): 52.7 mg/mL
- Solubility ([4]; Polyoxyethylene 8 stearate, 25° C.): 18.1 mg/mL
- Solubility ([4]; Polyoxyethylene hydrogenated castor oil, 25° C.): 10.1 mg/mL
- Solubility ([4]; Tween 80, 25° C.): 7.5 mg/mL
- Solubility ([5]; Ethanol, 25° C.): 61.1 mg/mL
- Solubility ([5]; Glycerol, 25° C.): 5.0 mg/mL
- Solubility ([5]; PEG400, 25° C.): 16.5 mg/mL
- Solubility ([5]; Propylene glycol, 25° C.): 5.0 mg/mL
- Solubility ([5]; Transcutol, 25° C.): 99.5 mg/mL
- Solubility ([6]; 1-octanol, 25° C.): 114.0 mg/mL
- Solubility ([6]; Azone (Laurocapram), 25° C.): 66.0 mg/mL
- Solubility ([6]; Capryl monoglyceride, 25° C. (Table 11)): 139.8 mg/mL
- Solubility ([6]; Glycerol mono/di-caprylocaprate, 25° C. (Table 11)): 147.0 mg/mL
- Solubility ([6]; Glyceryl monooleate, 25° C. (Table 11)): 37.1 mg/mL
- Solubility ([6]; Isopropyl myristate, 25° C. (Table 11)): 41.0 mg/mL
- Solubility ([6]; Polyglycerol fatty acid ester, 25° C. (Table 11)): 10.0 mg/mL
- Solubility ([6]; Propylene Glycol Monocaprylate, 25° C. (Table 11)): 160.0 mg/mL
- Solubility ([7]; FDA Dissolution medium: 0.25% SLS in 56.5 mM phosphate buffer, pH 4.5, 25° C.): 0.7 mg/mL
- Solubility ([7]; pH 3.0 buffer, 25° C.): <0.001 mg/mL
- Solubility ([7]; pH 4.0 buffer, 25° C.): <0.001 mg/mL
- Solubility ([7]; pH 5.0 buffer, 25° C.): <0.001 mg/mL
- Solubility ([7]; pH 6.0 buffer, 25° C.): <0.001 mg/mL
- Solubility ([7]; pH 7.4 buffer, 25° C.): <0.001 mg/mL
- Solubility ([8]; Capryl monoglyceride): 139.8 mg/mL
- Solubility ([8]; Castor oil): 59.6 mg/mL
- Solubility ([8]; Coconut oil): 30.6 mg/mL
- Solubility ([8]; Corn oil): 31.4 mg/mL
- Solubility ([8]; Glycerol mono/di-caprylocaprate): 147.0 mg/mL
- Solubility ([8]; Glyceryl monooleate): 37.1 mg/mL
- Solubility ([8]; Isopropyl myristate): 41.0 mg/mL
- Solubility ([8]; Olive oil): 27.3 mg/mL
- Solubility ([8]; Polyglycerol fatty acid ester): 10.0 mg/mL
- Solubility ([8]; Propylene Glycol Monocaprylate): 160.0 mg/mL
- Solubility ([8]; Soybean oil): 28.1 mg/mL
